Values belong to the compound of their own block, whether it stands above or below them.
Tests used:
[1] = biological target: T1, Serine/threonine-protein kinase NLK (Homo sapiens) (UniProt Q9UBE8); test: Inhibition of human recombinant NLK at 500 nM related to control ULK1
T1 sequence (whole entry): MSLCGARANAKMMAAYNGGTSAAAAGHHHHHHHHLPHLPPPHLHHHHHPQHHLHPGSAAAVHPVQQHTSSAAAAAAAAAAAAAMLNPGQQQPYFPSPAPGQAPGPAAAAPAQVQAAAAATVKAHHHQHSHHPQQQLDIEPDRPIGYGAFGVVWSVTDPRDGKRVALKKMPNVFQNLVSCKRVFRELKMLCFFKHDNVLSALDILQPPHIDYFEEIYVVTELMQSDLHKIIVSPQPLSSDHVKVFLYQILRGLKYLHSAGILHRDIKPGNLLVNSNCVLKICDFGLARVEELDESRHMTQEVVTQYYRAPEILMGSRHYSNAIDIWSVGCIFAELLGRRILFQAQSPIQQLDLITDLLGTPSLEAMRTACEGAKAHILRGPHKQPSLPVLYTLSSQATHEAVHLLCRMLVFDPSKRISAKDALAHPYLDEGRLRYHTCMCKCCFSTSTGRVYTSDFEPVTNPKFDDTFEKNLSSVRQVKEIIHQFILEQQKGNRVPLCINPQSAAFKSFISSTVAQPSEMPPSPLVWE

[2] = biological target: Fibroblast growth factor receptor 4 (Homo sapiens) (UniProt P22455); test: Inhibition of human recombinant FGFR4 at 500 nM related to control ULK1
[3] = biological target: Serine/threonine-protein kinase VRK2 (Homo sapiens) (UniProt Q86Y07); test: Inhibition of human recombinant VRK2 at 500 nM related to control ULK1
[4] = biological target: Tyrosine-protein kinase Tec (Homo sapiens) (UniProt P42680); test: Inhibition of human recombinant TEC at 15 nM related to control ULK1
[5] = biological target: T2, Ephrin type-B receptor 4 (Homo sapiens) (UniProt P54760); test: Inhibition of human recombinant EphB4 at 15 nM in presence of ATP by radiometric assay relative to control
T2 sequence (whole entry): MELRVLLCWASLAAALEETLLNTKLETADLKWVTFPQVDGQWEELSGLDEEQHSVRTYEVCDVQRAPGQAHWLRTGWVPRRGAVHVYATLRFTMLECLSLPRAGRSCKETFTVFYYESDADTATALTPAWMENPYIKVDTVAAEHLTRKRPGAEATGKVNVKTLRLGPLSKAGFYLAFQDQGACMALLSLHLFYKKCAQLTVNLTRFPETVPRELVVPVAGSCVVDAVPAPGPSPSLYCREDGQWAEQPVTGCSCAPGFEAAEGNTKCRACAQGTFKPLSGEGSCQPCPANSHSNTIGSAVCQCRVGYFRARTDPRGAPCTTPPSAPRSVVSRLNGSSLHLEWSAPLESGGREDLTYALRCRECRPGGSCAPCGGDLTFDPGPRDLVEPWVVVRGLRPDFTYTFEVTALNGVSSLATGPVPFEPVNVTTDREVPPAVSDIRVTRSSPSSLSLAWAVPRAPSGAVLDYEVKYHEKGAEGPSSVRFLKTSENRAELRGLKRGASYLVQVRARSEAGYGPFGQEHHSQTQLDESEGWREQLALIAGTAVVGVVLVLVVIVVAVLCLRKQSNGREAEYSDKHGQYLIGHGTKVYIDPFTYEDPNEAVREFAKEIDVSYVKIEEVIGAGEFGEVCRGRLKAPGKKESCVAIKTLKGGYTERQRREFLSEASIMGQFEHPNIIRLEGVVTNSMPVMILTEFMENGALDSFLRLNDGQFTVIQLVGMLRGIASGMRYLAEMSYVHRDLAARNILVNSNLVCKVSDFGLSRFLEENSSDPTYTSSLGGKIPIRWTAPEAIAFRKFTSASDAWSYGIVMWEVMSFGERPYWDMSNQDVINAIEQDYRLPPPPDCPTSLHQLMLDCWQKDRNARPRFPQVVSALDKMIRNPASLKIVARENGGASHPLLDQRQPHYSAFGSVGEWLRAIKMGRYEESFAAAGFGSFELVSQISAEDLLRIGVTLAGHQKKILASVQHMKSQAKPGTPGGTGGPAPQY

[6] = biological target: SAFB-like transcription modulator (Homo sapiens) (UniProt Q9NWH9); test: Inhibition of human recombinant MET at 40 nM related to control ULK1
[7] = biological target: Serine/threonine-protein kinase WNK3 (Homo sapiens) (UniProt Q9BYP7); test: Inhibition of human recombinant Wnk3 at 40 nM related to control ULK1
Serine/threonine-protein kinase WNK3 (Homo sapiens), sequence (Q9BYP7 whole entry): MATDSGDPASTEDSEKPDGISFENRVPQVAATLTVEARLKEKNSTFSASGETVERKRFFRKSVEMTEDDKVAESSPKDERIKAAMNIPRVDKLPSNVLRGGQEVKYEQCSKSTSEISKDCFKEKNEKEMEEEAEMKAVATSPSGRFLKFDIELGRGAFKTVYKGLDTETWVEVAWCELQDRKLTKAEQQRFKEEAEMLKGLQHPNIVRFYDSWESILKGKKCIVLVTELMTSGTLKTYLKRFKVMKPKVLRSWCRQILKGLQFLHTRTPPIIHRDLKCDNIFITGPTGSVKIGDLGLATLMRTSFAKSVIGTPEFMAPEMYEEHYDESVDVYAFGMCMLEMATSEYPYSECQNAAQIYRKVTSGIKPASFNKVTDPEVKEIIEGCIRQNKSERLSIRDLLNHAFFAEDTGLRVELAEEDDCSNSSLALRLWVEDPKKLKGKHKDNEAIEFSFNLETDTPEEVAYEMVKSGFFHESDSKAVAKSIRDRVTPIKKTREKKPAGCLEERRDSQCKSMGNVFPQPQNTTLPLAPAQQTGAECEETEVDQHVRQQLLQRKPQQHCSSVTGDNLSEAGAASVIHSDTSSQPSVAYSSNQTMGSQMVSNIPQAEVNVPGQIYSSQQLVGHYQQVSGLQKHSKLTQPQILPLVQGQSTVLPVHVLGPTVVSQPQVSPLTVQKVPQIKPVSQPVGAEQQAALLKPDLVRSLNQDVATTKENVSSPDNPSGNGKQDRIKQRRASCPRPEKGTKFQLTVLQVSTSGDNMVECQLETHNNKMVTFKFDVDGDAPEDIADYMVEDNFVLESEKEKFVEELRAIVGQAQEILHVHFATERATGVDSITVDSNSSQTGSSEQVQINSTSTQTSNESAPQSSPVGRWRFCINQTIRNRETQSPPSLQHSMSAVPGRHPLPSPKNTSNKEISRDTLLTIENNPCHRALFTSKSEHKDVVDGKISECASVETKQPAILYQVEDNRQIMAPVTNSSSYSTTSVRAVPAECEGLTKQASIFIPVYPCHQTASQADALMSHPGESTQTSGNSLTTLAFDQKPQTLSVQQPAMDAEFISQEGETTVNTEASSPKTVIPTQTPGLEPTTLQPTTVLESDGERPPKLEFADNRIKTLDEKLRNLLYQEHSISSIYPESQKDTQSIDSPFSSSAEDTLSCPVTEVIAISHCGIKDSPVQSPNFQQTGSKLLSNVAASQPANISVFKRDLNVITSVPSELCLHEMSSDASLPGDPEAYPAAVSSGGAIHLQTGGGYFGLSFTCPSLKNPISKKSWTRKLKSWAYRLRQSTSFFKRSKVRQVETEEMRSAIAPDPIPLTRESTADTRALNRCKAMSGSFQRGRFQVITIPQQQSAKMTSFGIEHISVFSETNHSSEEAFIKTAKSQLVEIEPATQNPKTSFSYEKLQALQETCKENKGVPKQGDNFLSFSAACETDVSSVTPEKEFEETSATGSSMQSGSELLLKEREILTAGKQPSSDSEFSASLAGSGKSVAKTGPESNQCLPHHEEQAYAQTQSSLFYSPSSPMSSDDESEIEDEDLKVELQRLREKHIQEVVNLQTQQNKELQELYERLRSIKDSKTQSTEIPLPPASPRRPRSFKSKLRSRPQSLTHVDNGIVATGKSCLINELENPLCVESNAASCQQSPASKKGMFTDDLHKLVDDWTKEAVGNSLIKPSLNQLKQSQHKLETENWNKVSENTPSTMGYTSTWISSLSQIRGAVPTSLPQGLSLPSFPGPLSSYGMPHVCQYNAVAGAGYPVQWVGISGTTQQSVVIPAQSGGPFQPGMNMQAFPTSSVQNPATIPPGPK

Fibroblast growth factor receptor 4 (Homo sapiens), sequence (P22455 22-802 limits assumed): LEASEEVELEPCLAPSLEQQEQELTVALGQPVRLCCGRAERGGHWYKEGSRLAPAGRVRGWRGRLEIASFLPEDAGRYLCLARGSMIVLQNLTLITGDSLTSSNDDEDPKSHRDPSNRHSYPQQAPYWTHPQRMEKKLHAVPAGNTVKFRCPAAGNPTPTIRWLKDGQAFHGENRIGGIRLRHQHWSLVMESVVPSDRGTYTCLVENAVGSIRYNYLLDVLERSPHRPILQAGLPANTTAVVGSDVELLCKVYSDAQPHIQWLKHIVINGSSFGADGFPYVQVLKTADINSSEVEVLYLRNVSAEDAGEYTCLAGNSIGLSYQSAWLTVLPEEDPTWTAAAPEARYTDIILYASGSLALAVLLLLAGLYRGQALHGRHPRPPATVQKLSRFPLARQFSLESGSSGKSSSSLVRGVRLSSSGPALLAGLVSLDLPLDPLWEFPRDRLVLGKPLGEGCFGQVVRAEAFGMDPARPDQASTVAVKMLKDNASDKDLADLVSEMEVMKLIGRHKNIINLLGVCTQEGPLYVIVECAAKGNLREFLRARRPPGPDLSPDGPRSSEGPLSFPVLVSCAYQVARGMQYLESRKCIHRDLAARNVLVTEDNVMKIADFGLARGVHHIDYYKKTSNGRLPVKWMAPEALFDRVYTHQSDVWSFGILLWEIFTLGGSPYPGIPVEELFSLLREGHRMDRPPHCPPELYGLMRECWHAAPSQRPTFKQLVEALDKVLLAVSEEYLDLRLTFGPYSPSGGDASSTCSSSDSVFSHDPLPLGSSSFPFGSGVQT
SAFB-like transcription modulator (Homo sapiens), sequence (Q9NWH9 whole entry): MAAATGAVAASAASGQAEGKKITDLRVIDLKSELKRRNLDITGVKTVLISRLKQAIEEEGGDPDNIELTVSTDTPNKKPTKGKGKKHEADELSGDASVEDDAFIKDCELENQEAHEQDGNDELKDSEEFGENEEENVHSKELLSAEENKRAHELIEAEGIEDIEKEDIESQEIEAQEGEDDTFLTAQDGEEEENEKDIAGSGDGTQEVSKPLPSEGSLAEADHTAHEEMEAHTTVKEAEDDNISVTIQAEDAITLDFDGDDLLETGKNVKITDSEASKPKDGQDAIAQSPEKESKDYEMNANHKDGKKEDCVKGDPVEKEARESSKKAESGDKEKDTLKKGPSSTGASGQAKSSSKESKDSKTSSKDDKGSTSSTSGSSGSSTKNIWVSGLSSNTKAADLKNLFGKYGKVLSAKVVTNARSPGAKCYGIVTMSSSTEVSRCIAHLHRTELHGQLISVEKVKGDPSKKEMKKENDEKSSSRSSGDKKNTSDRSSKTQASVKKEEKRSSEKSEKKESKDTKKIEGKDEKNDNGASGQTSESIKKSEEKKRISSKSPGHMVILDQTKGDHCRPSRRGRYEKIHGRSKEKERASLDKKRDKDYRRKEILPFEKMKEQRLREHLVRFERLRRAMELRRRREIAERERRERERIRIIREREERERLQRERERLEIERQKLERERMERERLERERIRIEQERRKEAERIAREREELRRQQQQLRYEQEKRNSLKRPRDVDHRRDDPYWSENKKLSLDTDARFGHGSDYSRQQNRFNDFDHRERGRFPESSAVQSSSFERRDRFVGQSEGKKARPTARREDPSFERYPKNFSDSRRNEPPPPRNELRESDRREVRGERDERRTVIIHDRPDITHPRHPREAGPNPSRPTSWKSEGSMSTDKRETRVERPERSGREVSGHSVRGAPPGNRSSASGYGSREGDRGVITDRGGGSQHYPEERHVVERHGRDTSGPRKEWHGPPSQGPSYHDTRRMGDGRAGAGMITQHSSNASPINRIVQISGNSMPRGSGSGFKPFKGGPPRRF
Serine/threonine-protein kinase VRK2 (Homo sapiens), sequence (Q86Y07 whole entry): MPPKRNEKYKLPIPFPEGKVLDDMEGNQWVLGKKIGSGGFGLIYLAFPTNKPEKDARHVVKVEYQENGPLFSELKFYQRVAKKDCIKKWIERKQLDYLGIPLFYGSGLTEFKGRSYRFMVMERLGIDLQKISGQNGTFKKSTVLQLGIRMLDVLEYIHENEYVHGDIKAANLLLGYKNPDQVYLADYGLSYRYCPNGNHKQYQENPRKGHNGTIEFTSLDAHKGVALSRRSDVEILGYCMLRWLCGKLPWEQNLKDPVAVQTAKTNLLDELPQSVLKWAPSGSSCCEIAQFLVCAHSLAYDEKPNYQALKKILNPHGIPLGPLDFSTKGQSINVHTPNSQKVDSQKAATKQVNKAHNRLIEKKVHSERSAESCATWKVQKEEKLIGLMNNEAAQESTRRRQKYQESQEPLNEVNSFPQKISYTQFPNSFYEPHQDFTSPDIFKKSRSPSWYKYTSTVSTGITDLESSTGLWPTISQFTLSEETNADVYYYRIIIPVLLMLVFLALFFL
Tyrosine-protein kinase Tec (Homo sapiens), sequence (P42680 whole entry, looked up): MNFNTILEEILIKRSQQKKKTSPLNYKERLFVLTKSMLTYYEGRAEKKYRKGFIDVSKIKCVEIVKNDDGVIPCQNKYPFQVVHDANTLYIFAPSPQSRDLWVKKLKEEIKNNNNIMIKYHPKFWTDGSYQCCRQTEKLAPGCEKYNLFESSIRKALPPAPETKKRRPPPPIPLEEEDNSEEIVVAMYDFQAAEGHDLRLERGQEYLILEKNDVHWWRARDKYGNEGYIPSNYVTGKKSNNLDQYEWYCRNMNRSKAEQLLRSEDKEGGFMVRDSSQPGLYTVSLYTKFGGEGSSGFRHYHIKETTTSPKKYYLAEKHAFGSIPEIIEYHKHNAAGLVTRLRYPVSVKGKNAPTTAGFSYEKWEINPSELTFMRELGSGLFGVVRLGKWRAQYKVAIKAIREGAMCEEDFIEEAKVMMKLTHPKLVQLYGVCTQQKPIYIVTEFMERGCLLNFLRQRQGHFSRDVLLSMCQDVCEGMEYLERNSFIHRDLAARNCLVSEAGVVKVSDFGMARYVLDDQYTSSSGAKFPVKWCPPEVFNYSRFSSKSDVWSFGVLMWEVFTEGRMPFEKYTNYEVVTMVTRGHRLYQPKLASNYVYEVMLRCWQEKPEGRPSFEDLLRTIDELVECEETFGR

fold change (FC) [1]: 0.05
fold change (FC) [2]: 0.14
fold change (FC) [3]: 0.31
SMILES: CNC(=O)c1ccccc1Oc1nc(Nc2cc(OC)c(OC)c(OC)c2)ncc1Br

fold change (FC) [4]: 0
inhibition [5]: 3%
SMILES: CC(C)[C@H](NC(=O)c1cc(-c2cnn3cc(-c4ccc(OCCN5CCCCC5)cc4)cnc23)cs1)C(F)(F)F

fold change (FC) [6]: 0.22
fold change (FC) [7]: 0.04
SMILES: O=C(N[C@@H](C1CC1)C(F)(F)F)c1cc(-c2cnn3cc(-c4ccc(F)cc4)cnc23)cs1

— ChEMBL document CHEMBL5653631, “A Potent and Selective ULK1 Inhibitor Suppresses Autophagy and Sensitizes Cancer Cells to Nutrient Stress” (iScience, 2018)
